This passage reports drug sensitivity score results from the supplement of paper PMC11003180.

Each structure is given as a SMILES string.

Experiment in all cases: drug sensitivity score (DSS) from 5-dose viability curve (DSS (area-based score, 0 = no response)); higher = more sensitive (stronger viability inhibition); extreme values may be limits of the assay
Assay [1] has as its system MDCK wild-type - doxycycline. The note with it: doxycycline: none; 72 h. In outline:
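Parental MDCK cells, grown without doxycycline, were seeded at 2000 cells/well into 384-well plates pre-spotted with an oncology library of 528 drugs at five doses (1-10,000 nM). After 72 h at 37 °C, CellTiter-Glo luminescence was read. Viability was scaled per plate between vehicle and positive controls, and drug sensitivity scores were derived from dose-response curve fits in the Breeze pipeline.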

Assay [2] relates to MDCK p60AmotL2-inducible + doxycycline (p60AmotL2 expressing). Conditions: doxycycline: 10 ng/mL; 72 h. The method in brief: (§1)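 Pre-spotted 384-well plates held 528 oncology drugs, each at five doses from 1 to 10,000 nM. Parental and doxycycline-inducible MDCK cells, exposed beforehand to 10 ng/mL doxycycline in the medium, were added at 2000 cells/well and incubated 72 h at 37 °C. Viability came from CellTiter-Glo luminescence normalized per plate to vehicle and positive controls, and the Breeze pipeline fitted dose-response curves to give drug sensitivity scores.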

For assay [3], the system named is MDCK wild-type + doxycycline. The note with it: doxycycline: 10 ng/mL; 72 h. In outline: as §1

Regarding `C/C(=C\c1csc(C)n1)[C@@H]1C[C@@H]2O[C@]2(C)CCC[C@H](C)[C@H](O)[C@@H](C)C(=O)C(C)(C)[C@@H](O)CC(=O)N1` [Ixabepilone], the drug sensitivity score came to 5.4 in assay [1], 5 in assay [2] and 5 in assay [3].

On to `CC(C)C[C@H](NC(=O)CNC(=O)c1cc(Cl)ccc1Cl)B(O)O` [Ixazomib], for which the drug sensitivity score in assay [1] came out at 9.6; in assay [2] it was 9.7; in assay [3], 9.4.

For `Nc1cc(COc2c(Cl)cc(C[C@H](N)C(=O)O)cc2Cl)c2oc(-c3ccccc3)nc2c1` [JPH203], the drug sensitivity score in assay [1], in assay [2] and in assay [3] was 0 each time.

On to `CC(C)NC(=O)COc1cccc(-c2nc(Nc3ccc4[nH]ncc4c3)c3ccccc3n2)c1` [KD025], for which the results for the drug sensitivity score in assay [1], in assay [2] and in assay [3] were 0.8, 0 and 0, respectively.

On to `CS(=O)(=O)CCNCc1ccc(-c2ccc3ncnc(Nc4ccc(OCc5cccc(F)c5)c(Cl)c4)c3c2)o1` [Lapatinib], for which the drug sensitivity score in assay [1] amounted to 0.9; in assay [2], 6.8; in assay [3], 0.

With `O=C(Nc1cnn2ccc(N3CCC[C@@H]3c3cc(F)ccc3F)nc12)N1CC[C@H](O)C1` [Larotrectinib], the drug sensitivity score in assay [1], in assay [2] and in assay [3] was 0 throughout.

As to `Oc1ccc2c(c1)CC[C@H](c1ccccc1)[C@@H]2c1ccc(OCCN2CCCC2)cc1` [Lasofoxifene], the drug sensitivity score in assay [1], in assay [2] and in assay [3] was 0 throughout.

`Nc1cccc2c1CN(C1CCC(=O)NC1=O)C2=O` (stereo unspecified) [Lenalidomide]: the drug sensitivity score in assay [1], in assay [2] and in assay [3] was 0 throughout.

Take `COc1cc2nccc(Oc3ccc(NC(=O)NC4CC4)c(Cl)c3)c2cc1C(N)=O` [Lenvatinib]: the drug sensitivity score in assay [1], in assay [2] and in assay [3] was 0 throughout.

Consider `N#Cc1ccc(C(c2ccc(C#N)cc2)n2cncn2)cc1` [Letrozole], for which the drug sensitivity score in assay [1], in assay [2] and in assay [3] was 0 in each case.

Turning to `Cc1ccc(F)c(NC(=O)Nc2ccc(-c3cccc4[nH]nc(N)c34)cc2)c1` [Linifanib], the drug sensitivity score in assay [1], in assay [2] and in assay [3] was 0 each time.

`C[C@]1(O)C[C@@H](c2nc(-c3ccc4ccc(-c5ccccc5)nc4c3)c3c(N)nccn32)C1` [Linsitinib]: the drug sensitivity score in assay [1], in assay [2] and in assay [3] was 0 in each case.

Take `CCNCCS(=O)(=O)NC[C@@]1(c2ccccc2)SC(NC(=O)C(C)(C)C)=NN1C(=O)C(C)(C)C` [Litronesib]: the values for the drug sensitivity score in assay [1], in assay [2] and in assay [3] were 22, 26.6 and 25.1, respectively.

With `Nc1nc(OCc2cc(Br)cs2)c2[nH]cnc2n1` [Lomeguatrib], the drug sensitivity score in assay [1], in assay [2] and in assay [3] was 0 throughout.

`NC(=O)N1CCC(CC(=O)N2CCC([C@H]3c4ncc(Br)cc4CCc4cc(Cl)cc(Br)c43)CC2)CC1` [Lonafarnib]: the drug sensitivity score in assay [1] is 8.6; in assay [2] it was 14.6; in assay [3] it was 9.9.

Consider `Cc1c(F)cc(C(=O)NC2CC2)cc1-c1ccc(C(=O)NCC(C)(C)C)cn1` [Losmapimod], for which the drug sensitivity score in assay [1], in assay [2] and in assay [3] was 0 in each case.

With `CC[C@H](C)C(=O)O[C@H]1C[C@@H](C)C=C2C=C[C@H](C)[C@H](CC[C@@H]3C[C@@H](O)CC(=O)O3)[C@H]21` [Lovastatin], the drug sensitivity score in assay [1], in assay [2] and in assay [3] was 0 each time.
